Results as given in patent US20240376163A1, “PEPTIDE FOR INHIBITING CALCINEURIN AND USE THEREOF” (Seoul National University R&DB Foundation, priority 2023, published 2024).

Tested on: Jurkat T cells
Assay: mRNA sequencing of activated Jurkat T cells
Type: cell-based, human
Details: P + I

C=CC[C@@H]1/C=C(\C)C[C@H](C)C[C@H](OC)[C@H]2O[C@@](O)(C(=O)C(=O)N3CCCC[C@H]3C(=O)O[C@H](/C(C)=C/[C@@H]3CC[C@@H](O)[C@H](OC)C3)[C@H](C)[C@@H](O)CC1=O)[C@H](C)C[C@@H]2OC [FK506, Tacrolimus, reference compound]
MSMO1 FPKM (Jurkat T cells): 59.655 FPKM
MT2A FPKM (Jurkat T cells): 369.658 FPKM
MXD3 FPKM (Jurkat T cells): 17.861 FPKM
MYB FPKM (Jurkat T cells): 58.524 FPKM
MZB1 FPKM (Jurkat T cells): 22.015 FPKM
N4BP3 FPKM (Jurkat T cells): 1.739 FPKM
NAA16 FPKM (Jurkat T cells): 3.527 FPKM
NCKAP1 FPKM (Jurkat T cells): 8.582 FPKM
NCOA3 FPKM (Jurkat T cells): 9.949 FPKM
NDRG1 FPKM (Jurkat T cells): 126.361 FPKM
NDRG2 FPKM (Jurkat T cells): 2.881 FPKM
NEDD9 FPKM (Jurkat T cells): 3.748 FPKM
NFATC1 FPKM (Jurkat T cells): 3.793 FPKM
NFKB1 FPKM (Jurkat T cells): 34.242 FPKM
NFKB2 FPKM (Jurkat T cells): 49.22 FPKM
NLRC3 FPKM (Jurkat T cells): 7.789 FPKM
NME4 FPKM (Jurkat T cells): 16.395 FPKM
NOTCH2 FPKM (Jurkat T cells): 10.308 FPKM
NOTCH3 FPKM (Jurkat T cells): 0.902 FPKM
NPDC1 FPKM (Jurkat T cells): 4.328 FPKM
NR4A3 FPKM (Jurkat T cells): 1.927 FPKM
NREP FPKM (Jurkat T cells): 9.925 FPKM
NRP1 FPKM (Jurkat T cells): 14.572 FPKM
NSG1 FPKM (Jurkat T cells): 4.302 FPKM
NSMF FPKM (Jurkat T cells): 3.164 FPKM
NT5E FPKM (Jurkat T cells): 8.91 FPKM
NTRK1 FPKM (Jurkat T cells): 0.836 FPKM
ODC1 FPKM (Jurkat T cells): 245.466 FPKM
OPTN FPKM (Jurkat T cells): 12.958 FPKM
OSBPL5 FPKM (Jurkat T cells): 3.354 FPKM
PAM FPKM (Jurkat T cells): 1.483 FPKM
PCNA-AS1 FPKM (Jurkat T cells): 70.937 FPKM
PDCD1 FPKM (Jurkat T cells): 1.377 FPKM
PDGFA FPKM (Jurkat T cells): 3.25 FPKM
PDGFC FPKM (Jurkat T cells): 2.292 FPKM
PDIA6 FPKM (Jurkat T cells): 123.669 FPKM
PDLIM1 FPKM (Jurkat T cells): 6.874 FPKM
PELI2 FPKM (Jurkat T cells): 11.262 FPKM
PEX5L FPKM (Jurkat T cells): 1.428 FPKM
PHACTR2 FPKM (Jurkat T cells): 2.927 FPKM
PHLDB2 FPKM (Jurkat T cells): 3.898 FPKM
PI16 FPKM (Jurkat T cells): 17.07 FPKM
PKIG FPKM (Jurkat T cells): 12.411 FPKM
PKM FPKM (Jurkat T cells): 1736.037 FPKM
PLAC8 FPKM (Jurkat T cells): 3.158 FPKM
PLEC FPKM (Jurkat T cells): 21.747 FPKM
PLS3 FPKM (Jurkat T cells): 0.052 FPKM
POTEE FPKM (Jurkat T cells): 1.42 FPKM
POU2AF1 FPKM (Jurkat T cells): 2.274 FPKM
POU2F2 FPKM (Jurkat T cells): 3.317 FPKM
PPIF FPKM (Jurkat T cells): 50.291 FPKM
PPP1R15A FPKM (Jurkat T cells): 77.478 FPKM
PPP1R16B FPKM (Jurkat T cells): 29.659 FPKM
PRDM8 FPKM (Jurkat T cells): 39.913 FPKM
PRNP FPKM (Jurkat T cells): 39.685 FPKM
PSMB10 FPKM (Jurkat T cells): 104.49 FPKM
PTPN6 FPKM (Jurkat T cells): 20.906 FPKM
PTPN7 FPKM (Jurkat T cells): 93.59 FPKM
PXYLP1 FPKM (Jurkat T cells): 5.01 FPKM
QPRT FPKM (Jurkat T cells): 13.402 FPKM
RAB37 FPKM (Jurkat T cells): 2.455 FPKM
RASGRP1 FPKM (Jurkat T cells): 4.464 FPKM
RASGRP2 FPKM (Jurkat T cells): 3.002 FPKM
RB1 FPKM (Jurkat T cells): 62.321 FPKM
RCBTB2 FPKM (Jurkat T cells): 13.008 FPKM
RCOR2 FPKM (Jurkat T cells): 1.361 FPKM
RGS2 FPKM (Jurkat T cells): 3.365 FPKM
RHOU FPKM (Jurkat T cells): 1.51 FPKM
RNF19A FPKM (Jurkat T cells): 12.334 FPKM
RNF212 FPKM (Jurkat T cells): 1.059 FPKM
RORA FPKM (Jurkat T cells): 2.502 FPKM
RRAS2 FPKM (Jurkat T cells): 18.257 FPKM
RTN4R FPKM (Jurkat T cells): 2.449 FPKM
RUNX1 FPKM (Jurkat T cells): 37.963 FPKM
RUNX3 FPKM (Jurkat T cells): 23.624 FPKM
SASH3 FPKM (Jurkat T cells): 59.349 FPKM
SBK1 FPKM (Jurkat T cells): 9.239 FPKM
SCG2 FPKM (Jurkat T cells): 159.394 FPKM
SCHIP1 FPKM (Jurkat T cells): 1.535 FPKM
SEPT3 FPKM (Jurkat T cells): 1.089 FPKM
SEPT6 FPKM (Jurkat T cells): 55.091 FPKM
SEPT9 FPKM (Jurkat T cells): 55.265 FPKM
SERINC5 FPKM (Jurkat T cells): 3.184 FPKM
SERPINB8 FPKM (Jurkat T cells): 23.788 FPKM
SERPINE2 FPKM (Jurkat T cells): 3.936 FPKM
SERTAD1 FPKM (Jurkat T cells): 16.162 FPKM
SGK1 FPKM (Jurkat T cells): 76.683 FPKM
SH2D1A FPKM (Jurkat T cells): 23.649 FPKM
SH2D2A FPKM (Jurkat T cells): 20.658 FPKM
SH3TC1 FPKM (Jurkat T cells): 1.562 FPKM
SIVA1 FPKM (Jurkat T cells): 50.269 FPKM
SLAMF1 FPKM (Jurkat T cells): 0.217 FPKM
SLAMF7 FPKM (Jurkat T cells): 3.121 FPKM
SLAMF8 FPKM (Jurkat T cells): 5.282 FPKM
SLC22A1 FPKM (Jurkat T cells): 7.005 FPKM
SLC27A2 FPKM (Jurkat T cells): 41.996 FPKM
SLC29A4 FPKM (Jurkat T cells): 1.68 FPKM
SLC35E4 FPKM (Jurkat T cells): 0.952 FPKM
SLC35G2 FPKM (Jurkat T cells): 10.118 FPKM
SMAD1 FPKM (Jurkat T cells): 4.873 FPKM
SMOX FPKM (Jurkat T cells): 14.9 FPKM
SMPD1 FPKM (Jurkat T cells): 20.599 FPKM
SORBS1 FPKM (Jurkat T cells): 0.4 FPKM
SOX4 FPKM (Jurkat T cells): 76.17 FPKM
SPINT1 FPKM (Jurkat T cells): 1.948 FPKM
SPRY1 FPKM (Jurkat T cells): 4.074 FPKM
SPRY4 FPKM (Jurkat T cells): 9.613 FPKM
SPSB1 FPKM (Jurkat T cells): 10.137 FPKM
SPTBN2 FPKM (Jurkat T cells): 2.135 FPKM
SRGN FPKM (Jurkat T cells): 10.812 FPKM
SSBP2 FPKM (Jurkat T cells): 7.127 FPKM
ST3GAL6 FPKM (Jurkat T cells): 4.018 FPKM
STAT2 FPKM (Jurkat T cells): 37.805 FPKM
STAT3 FPKM (Jurkat T cells): 83.385 FPKM
STAU2 FPKM (Jurkat T cells): 7.124 FPKM
STMN3 FPKM (Jurkat T cells): 10.423 FPKM
STX1A FPKM (Jurkat T cells): 16.1 FPKM
SYK FPKM (Jurkat T cells): 7.044 FPKM
TAGAP FPKM (Jurkat T cells): 4.352 FPKM
TAL1 FPKM (Jurkat T cells): 22.337 FPKM
TAP2 FPKM (Jurkat T cells): 5.187 FPKM
TAPBPL FPKM (Jurkat T cells): 19.59 FPKM
TBC1D4 FPKM (Jurkat T cells): 12.549 FPKM
TBC1D5 FPKM (Jurkat T cells): 4.088 FPKM
TBKBP1 FPKM (Jurkat T cells): 16.894 FPKM
TCF3 FPKM (Jurkat T cells): 39.165 FPKM
TCF7 FPKM (Jurkat T cells): 13.065 FPKM
TCF12 FPKM (Jurkat T cells): 34.798 FPKM
TDRD9 FPKM (Jurkat T cells): 1.245 FPKM
TGFBR2 FPKM (Jurkat T cells): 36.615 FPKM
THEM6 FPKM (Jurkat T cells): 3.232 FPKM
THEMIS FPKM (Jurkat T cells): 33.406 FPKM
TIAF1 FPKM (Jurkat T cells): 12.479 FPKM
TIAM1 FPKM (Jurkat T cells): 8.466 FPKM
TIAM2 FPKM (Jurkat T cells): 0.27 FPKM
TLE1 FPKM (Jurkat T cells): 1.864 FPKM
TMCC3 FPKM (Jurkat T cells): 4.527 FPKM
TNFAIP3 FPKM (Jurkat T cells): 25.168 FPKM
TNFRSF10B FPKM (Jurkat T cells): 25.474 FPKM
TNFSF10 FPKM (Jurkat T cells): 24.883 FPKM
TNFSF14 FPKM (Jurkat T cells): 1.023 FPKM
TPM4 FPKM (Jurkat T cells): 202.311 FPKM
TPST2 FPKM (Jurkat T cells): 21.077 FPKM
TRAF3IP3 FPKM (Jurkat T cells): 15.012 FPKM
TRIB1 FPKM (Jurkat T cells): 5.422 FPKM
TRIM21 FPKM (Jurkat T cells): 45.856 FPKM
TTLL1 FPKM (Jurkat T cells): 3.69 FPKM
UBE2L6 FPKM (Jurkat T cells): 164.565 FPKM
UHRF1 FPKM (Jurkat T cells): 8.288 FPKM
VAMP1 FPKM (Jurkat T cells): 14.793 FPKM
VAT1 FPKM (Jurkat T cells): 44.696 FPKM
VAV1 FPKM (Jurkat T cells): 30.218 FPKM
WARS FPKM (Jurkat T cells): 105.541 FPKM
WDR76 FPKM (Jurkat T cells): 8.368 FPKM
XCL1 FPKM (Jurkat T cells): 0 FPKM
XCL2 FPKM (Jurkat T cells): 0 FPKM
XIRP1 FPKM (Jurkat T cells): 6.348 FPKM
XRCC6BP1 FPKM (Jurkat T cells): 9.744 FPKM
YPEL1 FPKM (Jurkat T cells): 5.628 FPKM
ZFP36L1 FPKM (Jurkat T cells): 153.648 FPKM
ZFP36L2 FPKM (Jurkat T cells): 13.343 FPKM
ZNF280D FPKM (Jurkat T cells): 2.345 FPKM
ZNF367 FPKM (Jurkat T cells): 2.354 FPKM
ZNF480 FPKM (Jurkat T cells): 7.174 FPKM
ZNF521 FPKM (Jurkat T cells): 2.011 FPKM
ZNF652 FPKM (Jurkat T cells): 2.631 FPKM
ZNF704 FPKM (Jurkat T cells): 0.014 FPKM
ZNF827 FPKM (Jurkat T cells): 1.521 FPKM
ZNFX1 FPKM (Jurkat T cells): 16.708 FPKM
ZP4 FPKM (Jurkat T cells): 0.462 FPKM
ZYX FPKM (Jurkat T cells): 127.794 FPKM
ADORA2A FPKM: 0.998 FPKM
AGK FPKM: 14.029 FPKM
ARHGEF3 FPKM: 8.637 FPKM
ASAP1 FPKM: 7.765 FPKM
ATG14 FPKM: 7.863 FPKM
ATP6V1B2 FPKM: 50.672 FPKM
BCL2L1 FPKM: 39.402 FPKM
C3 FPKM: 0.489 FPKM
C10orf54 FPKM: 0.382 FPKM
CABP1 FPKM: 1.201 FPKM
CCDC64 FPKM: 10.044 FPKM
CCL1 FPKM: 0 FPKM
CCL3 FPKM: 0 FPKM
CCL3L1 FPKM: 0 FPKM
CCL3L3 FPKM: 0 FPKM
CCL4 FPKM: 0 FPKM
CCL4L1 FPKM: 0.087 FPKM
CCL4L2 FPKM: 0.087 FPKM
CCL20 FPKM: 0 FPKM
CCND2 FPKM: 0.558 FPKM
CD27-AS1 FPKM: 5.11 FPKM
CD27 FPKM: 3.098 FPKM
CD55 FPKM: 6.015 FPKM
CD70 FPKM: 3.005 FPKM
CD97 FPKM: 19.394 FPKM
CD200 FPKM: 0 FPKM
COL27A1 FPKM: 4.463 FPKM
CREB5 FPKM: 0.577 FPKM
